Experimental data from patent US11123378B2, “Compositions comprising bacterial strains” (4D Pharma Research Limited, priority 2017, dated 2021).

Tested on: cerebral tissues in the cerebral ischemia-reperfusion I/R model in mice
Experiment: Histological evaluation (H&E) of cerebral tissues in the cerebral ischemia-reperfusion I/R model
Assay type: in vivo
Settings: right hemisphere hippocampus; termination day 15 or day 29; compared to PBS negative control (2M)
From the text: At termination of the experiment, at either day 15 or day 29, the mice cerebral tissues were subjected to histopathological examinations.
The tissues were studied for pyknotic score (which assesses the extent of cell necrosis and death) and for vacuolisation (which assesses the extent of degeneration similar to apoptosis).
At termination the animals were sacrificed by CO2 asphyxiation. Where possible, half of the animals were sacrificed on day 15, and the other half were sacrificed on day 29. […] Brains were also harvested following saline perfusion. The right hemisphere of each brain was fixed with 2.5% Paraformaldehyde and stored at 2-8° C.
The sections of the right hemisphere of all animals per group were loaded onto slides followed by histological examination. Tissues were trimmed, embedded in paraffin, sectioned at approximately 5 microns thickness and stained with Hematoxylin & Eosin (H&E) (as well as with TUNEL reagents) using standardized protocols. The slides were examined under a light microscope. […]
The numbers of karyopy-knosis and apoptotic cells were counted, and the mean values were calculated. […] Ten field of ×20 magnifications were evaluated for the pyknosis and vacuolization score as follows.
Pyknosis and vacuolization, semi-quantitative scores: • 1. […]
A score was determined for each field of ×20 magnification for each mouse in a given sample group.

**Q.** Which “semi-quantitative pyknosis score (H&E)” value does the source give for `C[C@]12N[C@H](Cc3ccccc31)c1ccccc12` [MK-801] here?
**A.** Its value is “reduced pyknosis score”.

**Q.** What about the “semi-quantitative vacuolisation score (H&E)” value of the same compound?
**A.** The value was “did not reduce the vacuolisation score”.
